Data taken from ChEMBL document CHEMBL4602605, “Fluoroquinolones structural and medicinal developments (2013-2018): Where are we now?” (Bioorg Med Chem, 2019).
Converted amounts (≈) assume the structure as drawn.

Key:
Format in all cases: functional
Staphylococcus aureus [1] = experiment: Antimicrobial activity against Staphylococcus aureus ATCC 25923 by CLSI method
Escherichia coli [2] = experiment: Antimicrobial activity against Escherichia coli ATCC 25922 by CLSI method
Staphylococcus aureus [3] = experiment: Antimicrobial activity against methicillin-resistant Staphylococcus aureus ATCC 33591 incubated for 24 hrs by serial dilution method; settings: ATCC 33591, 24 h
Staphylococcus aureus [4] = experiment: Antimicrobial activity against methicillin-susceptible Staphylococcus aureus ATCC 29213 incubated for 24 hrs by serial dilution method; settings: ATCC 29213, 24 h
Escherichia coli [5] = experiment: Antimicrobial activity against Escherichia coli ATCC 35218 incubated for 24 hrs by serial dilution method; settings: ATCC 35218, 24 h
A549 = experiment: Growth inhibition of human A549 cells at 10 uM incubated for 48 hrs by MTT assay relative to control; settings: A549, 48 h, read-out: GI
Moraxella catarrhalis = experiment: Antimicrobial activity against Moraxella catarrhalis ATCC 25238 incubated for 24 hrs by serial dilution method; settings: ATCC 25238, 24 h
Enterococcus faecalis [6] = experiment: Antimicrobial activity against Enterococcus faecalis ATCC 29212 incubated for 24 hrs by serial dilution method; settings: ATCC 29212, 24 h
Klebsiella pneumoniae [7] = experiment: Antimicrobial activity against Klebsiella pneumoniae ATCC 35657 incubated for 24 hrs by serial dilution method; settings: ATCC 35657, 24 h
HeLa = experiment: Growth inhibition of human HeLa cells at 10 uM incubated for 48 hrs by MTT assay relative to control; settings: read-out: GI
PANC-1 = experiment: Growth inhibition of human PANC1 cells at 10 uM incubated for 48 hrs by MTT assay; settings: PANC-1, 48 h, read-out: GI
HCT-116 = experiment: Growth inhibition of human HCT116 cells at 10 uM incubated for 48 hrs by MTT assay relative to control; settings: HCT-116, 48 h, read-out: GI
Staphylococcus aureus [8] = experiment: Antimicrobial activity against Staphylococcus aureus ATCC 29213 incubated for 24 hrs by CLSI-based dilution method; settings: ATCC 29213, 24 h
Staphylococcus aureus [9] = experiment: Antimicrobial activity against gentamicin-resistant Staphylococcus aureus ATCC 33592 incubated for 24 hrs by CLSI-based broth microdilution method; settings: ATCC 33592, 24 h
Klebsiella pneumoniae [10] = experiment: Antimicrobial activity against Klebsiella pneumoniae ATCC 27736 incubated for 24 hrs by CLSI-based broth microdilution method; settings: ATCC 27736, 24 h
Staphylococcus aureus [11] = experiment: Antimicrobial activity against Staphylococcus aureus ATCC 25923 incubated for 24 hrs by CLSI-based dilution method; settings: ATCC 25923, 24 h
Pseudomonas aeruginosa [12] = experiment: Antimicrobial activity against Pseudomonas aeruginosa ATCC BAA-427 incubated for 24 hrs by CLSI-based broth microdilution method; settings: ATCC BAA-427, 24 h
Escherichia coli [13] = experiment: Antimicrobial activity against Escherichia coli ATCC 9637 incubated for 24 hrs by CLSI-based broth microdilution method; settings: W ATCC 9637, 24 h
Staphylococcus aureus [14] = experiment: Antimicrobial activity against methicillin-resistant Staphylococcus aureus ATCC 700699 incubated for 24 hrs by CLSI-based broth microdilution method; settings: ATCC 700699, 24 h
Bacillus cereus = experiment: Antimicrobial activity against Bacillus cereus 709 Roma incubated for 18 to 24 hrs by microbroth dilution method
Enterococcus faecalis [15] = experiment: Antimicrobial activity against Enterococcus faecalis ATCC 29212 incubated for 18 to 24 hrs by microbroth dilution method
[16] = test system: Yersinia pseudotuberculosis; experiment: Antimicrobial activity against Yersinia pseudotuberculosis ATCC 911 incubated for 18 to 24 hrs by microbroth dilution method
Staphylococcus aureus [17] = experiment: Antimicrobial activity against Staphylococcus aureus ATCC 25923 incubated for 18 to 24 hrs by microbroth dilution method
Escherichia coli [18] = experiment: Antimicrobial activity against Escherichia coli ATCC 25922 incubated for 18 to 24 hrs by microbroth dilution method
[19] = test system: Mycolicibacterium smegmatis; experiment: Antimicrobial activity against Mycobacterium smegmatis ATCC 607 incubated for 48 to 72 hrs by microbroth dilution method
Pseudomonas aeruginosa [20] = experiment: Antimicrobial activity against Pseudomonas aeruginosa ATCC 43288 incubated for 18 to 24 hrs by microbroth dilution method

Row | Compound | MIC (Staphylococcus aureus [8]) [µg/mL] | MIC (Staphylococcus aureus [9]) [µg/mL] | MIC (Klebsiella pneumoniae [10]) [µg/mL] | MIC (Staphylococcus aureus [11]) [µg/mL] | MIC (Pseudomonas aeruginosa [12]) [µg/mL] | MIC (Escherichia coli [13]) [µg/mL] | MIC (Staphylococcus aureus [14]) [µg/mL] | MIC (Bacillus cereus) [µg/mL] | MIC (Enterococcus faecalis [15]) [µg/mL] | MIC [16] [µg/mL] | MIC (Staphylococcus aureus [17]) [µg/mL] | MIC (Escherichia coli [18]) [µg/mL] | MIC [19] [µg/mL] | MIC (Pseudomonas aeruginosa [20]) [µg/mL] | other results
1 | O=C(O)c1cn(C2CC2)c2cc(N3CCN(C(=O)c4ccccc4)CC3)c(F)cc2c1=O | – | – | – | – | – | – | – | – | – | – | – | – | – | – | MIC (Staphylococcus aureus [1]): 1 µg/mL (≈ 2.3 µM); MIC (Escherichia coli [2]): 2 µg/mL (≈ 4.59 µM)
2 | O=C(O)c1cn(C2CC2)c2cc(N3CCN(Cc4ccccc4)CC3)c(F)cc2c1=O | – | – | – | – | – | – | – | – | – | – | – | – | – | – | MIC (Staphylococcus aureus [1]): 0.25 µg/mL (≈ 0.593 µM); MIC (Escherichia coli [2]): 0.25 µg/mL (≈ 0.593 µM)
3 | CCN(CC)Cc1cn(-c2cc3c(cc2F)c(=O)c(C(=O)NO)cn3C2CC2)nn1 | – | – | – | – | – | – | – | – | – | – | – | – | – | – | MIC (Staphylococcus aureus [3]): > 64 µg/mL; MIC (Staphylococcus aureus [4]): 64 µg/mL (≈ 154 µM); MIC (Escherichia coli [5]): 16 µg/mL (≈ 38.6 µM); inhibition of growth at 10 µM (A549): 40%; MIC (Moraxella catarrhalis): 16 µg/mL (≈ 38.6 µM); MIC (Enterococcus faecalis [6]): 64 µg/mL (≈ 154 µM); MIC (Klebsiella pneumoniae [7]): 8 µg/mL (≈ 19.3 µM); inhibition of growth at 10 µM (HeLa): 10%; inhibition of growth at 10 µM (PANC-1): 30%; inhibition of growth at 10 µM (HCT-116): 30%
4 | CC(C)NCc1cn(-c2cc3c(cc2F)c(=O)c(C(=O)NO)cn3C2CC2)nn1 | – | – | – | – | – | – | – | – | – | – | – | – | – | – | MIC (Staphylococcus aureus [3]): > 64 µg/mL; MIC (Staphylococcus aureus [4]): > 64 µg/mL; MIC (Escherichia coli [5]): > 64 µg/mL; inhibition of growth at 10 µM (A549): 35%; MIC (Moraxella catarrhalis): > 64 µg/mL; MIC (Enterococcus faecalis [6]): > 64 µg/mL; MIC (Klebsiella pneumoniae [7]): > 64 µg/mL; inhibition of growth at 10 µM (HeLa): 30%; inhibition of growth at 10 µM (PANC-1): 15%; inhibition of growth at 10 µM (HCT-116): 30%
5 | CCn1cc(C(=O)O)c(=O)c2cc(F)c(-n3cc(CO[C@H]4O[C@H](COC(C)=O)[C@@H](OC(C)=O)[C@H](OC(C)=O)[C@H]4OC(C)=O)nn3)c(F)c21 | > 50 | > 50 | > 50 | > 50 | > 50 | > 50 | > 50 | – | – | – | – | – | – | – | –
6 | CCn1cc(C(=O)O)c(=O)c2cc(F)c(-n3cc(CO[C@H]4O[C@H](COC(C)=O)[C@@H](OC(C)=O)[C@H](OC(C)=O)[C@H]4NC(C)=O)nn3)c(F)c21 | 6.25 (≈ 9.2 µM) | 6.25 (≈ 9.2 µM) | 6.25 (≈ 9.2 µM) | 6.25 (≈ 9.2 µM) | > 50 | 12.5 (≈ 18.4 µM) | > 50 | – | – | – | – | – | – | – | –
7 | CN(C)Cc1cn(-c2cc3c(cc2F)c(=O)c(C(=O)NO)cn3C2CC2)nn1 | – | – | – | – | – | – | – | – | – | – | – | – | – | – | MIC (Staphylococcus aureus [3]): > 64 µg/mL; MIC (Staphylococcus aureus [4]): > 64 µg/mL; MIC (Escherichia coli [5]): > 64 µg/mL; inhibition of growth at 10 µM (A549): 30%; MIC (Moraxella catarrhalis): > 64 µg/mL; MIC (Enterococcus faecalis [6]): > 64 µg/mL; MIC (Klebsiella pneumoniae [7]): > 64 µg/mL; inhibition of growth at 10 µM (HeLa): 23%; inhibition of growth at 10 µM (PANC-1): 20%; inhibition of growth at 10 µM (HCT-116): 15%
8 | O=C(O)c1cn(C2CC2)c2cc(N3CCN(Cn4nc(CN5CCN(c6ccc([N+](=O)[O-])cc6)CC5)oc4=S)CC3)c(F)cc2c1=O | – | – | – | – | – | – | – | 0.03 (≈ 0.0451 µM) | 0.03 (≈ 0.0451 µM) | 0.03 (≈ 0.0451 µM) | 0.03 (≈ 0.0451 µM) | 0.03 (≈ 0.0451 µM) | 0.03 (≈ 0.0451 µM) | 0.03 (≈ 0.0451 µM) | –
9 | CCn1cc(C(=O)O)c(=O)c2cc(F)c(N3CCN(Cn4nc(CN5CCN(c6ccc([N+](=O)[O-])cc6)CC5)oc4=S)CC3)cc21 | – | – | – | – | – | – | – | < 0.25 | < 0.25 | < 0.25 | 0.25 (≈ 0.383 µM) | 0.03 (≈ 0.046 µM) | 1 (≈ 1.53 µM) | < 0.25 | –
10 | CCn1cc(C(=O)O)c(=O)c2cc(F)c(-n3cc(CO[C@H]4OC[C@@H](OC(C)=O)[C@@H](OC(C)=O)[C@H]4OC(C)=O)nn3)c(F)c21 | 3.12 (≈ 5.13 µM) | 3.12 (≈ 5.13 µM) | 3.12 (≈ 5.13 µM) | 3.12 (≈ 5.13 µM) | > 50 | 6.25 (≈ 10.3 µM) | > 50 | – | – | – | – | – | – | – | –
11 | CCn1cc(C(=O)O)c(=O)c2cc(F)c(N3CCN(Cn4nc(CN5CCN(c6ccc([N+](=O)[O-])cc6)CC5)n(-c5ccc(F)cc5)c4=S)CC3)cc21 | – | – | – | – | – | – | – | 0.24 (≈ 0.322 µM) | 0.25 (≈ 0.335 µM) | 0.24 (≈ 0.322 µM) | 0.48 (≈ 0.644 µM) | < 0.03 | 0.244 (≈ 0.327 µM) | 0.48 (≈ 0.644 µM) | –
12 | CCn1cc(C(=O)O)c(=O)c2cc(F)c(-n3cc(CO[C@H]4O[C@H](COC(C)=O)[C@@H](OC(C)=O)[C@H](OC(C)=O)[C@@H]4OC(C)=O)nn3)c(F)c21 | 12.5 (≈ 18.4 µM) | 12.5 (≈ 18.4 µM) | 25 (≈ 36.7 µM) | 12.5 (≈ 18.4 µM) | > 50 | 50 (≈ 73.5 µM) | > 50 | – | – | – | – | – | – | – | –
13 | CCn1c(CN2CCN(c3ccc([N+](=O)[O-])cc3)CC2)nn(CN2CCN(c3cc4c(cc3F)c(=O)c(C(=O)O)cn4CC)CC2)c1=S | – | – | – | – | – | – | – | 0.122 to 0.25 (≈ 0.179 to 0.368 µM) | 0.122 (≈ 0.179 µM) | 0.25 (≈ 0.368 µM) | 0.25 to 0.99 (≈ 0.368 to 1.46 µM) | ≤ 0.03 | 0.244 (≈ 0.359 µM) | 0.25 to 0.5 (≈ 0.368 to 0.736 µM) | –
